Consider 2 compounds from article PMC3292765 (Chemistry & biology, 2012).

The Kd is a measure of binding affinity in units of concentration.

Read-outs that look alike come from different tables or passages of the source.

Experiment [1] concerns the target T1, p67^phox (Homo sapiens, UniProt P19878).
T1 sequence (P19878 1-212): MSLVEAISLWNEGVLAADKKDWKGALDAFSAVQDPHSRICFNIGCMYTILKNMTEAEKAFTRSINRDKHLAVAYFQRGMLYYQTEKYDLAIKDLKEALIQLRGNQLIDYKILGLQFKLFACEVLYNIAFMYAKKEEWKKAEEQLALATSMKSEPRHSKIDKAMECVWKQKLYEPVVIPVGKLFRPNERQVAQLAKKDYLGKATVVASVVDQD
As to the kind of experiment: microscale thermophoresis with labeled recombinant protein. It counts as binding.

The target of experiment [2] is T1, p67^phox. Described as above. Type of experiment: binding. The source holds these as a separate data set.

Turning to `O=[N+]([O-])c1cccc(C2Nc3ccc([N+](=O)[O-])cc3C3C=CCC32)c1` (centres unmarked) [compound 16, Phox-I2], in experiment [1], the Kd was ~150 nM.
As to Phox-I1, the Kd in experiment [2] was ~100 nM.
